Measured values taken from the NIST ThermoML archive (doi:10.1021/acs.jced.9b00540).
± gives the expanded uncertainty stated by the source.

Assay: xn = mol fraction of the nth substance listed
Settings: Liquid

CCOC(F)(C(F)(F)C(F)(F)C(F)(F)F)C(F)(C(F)(F)F)C(F)(F)F (stereo not given) [2-trifluoromethyl-3-ethoxydodecafluorohexane] + CC(C)OC(C)C
viscosity [mPa·s]
Settings | x1 = 0.25 | x1 = 0.375 | x1 = 0.5 | x1 = 0.625 | x1 = 0.75 | x1 = 1
293.15 K, 100 kPa, Capillary tube (Ostwald / Ubbelohde) method | 0.483 ± 0.01 | 0.573 ± 0.012 | 0.685 ± 0.014 | 0.818 ± 0.017 | 0.985 ± 0.021 | 1.369 ± 0.029
293.15 K, 20000 kPa, Falling or rolling sphere viscometry | 0.602 ± 0.013 | 0.751 ± 0.017 | 0.939 ± 0.021 | 1.1 ± 0.024 | 1.315 ± 0.029 | 1.894 ± 0.043
293.15 K, 40000 kPa, Falling or rolling sphere viscometry | 0.732 ± 0.016 | 0.944 ± 0.021 | 1.198 ± 0.026 | 1.412 ± 0.031 | 1.727 ± 0.038 | 2.645 ± 0.059
293.15 K, 60000 kPa, Falling or rolling sphere viscometry | 0.883 ± 0.019 | 1.171 ± 0.026 | 1.49 ± 0.033 | 1.802 ± 0.04 | 2.255 ± 0.05 | 3.622 ± 0.081
293.15 K, 80000 kPa, Falling or rolling sphere viscometry | 1.058 ± 0.023 | 1.435 ± 0.031 | 1.82 ± 0.04 | 2.291 ± 0.05 | 2.936 ± 0.065 | 4.894 ± 0.11
293.15 K, 100000 kPa, Falling or rolling sphere viscometry | 1.26 ± 0.028 | 1.741 ± 0.038 | 2.197 ± 0.048 | 2.902 ± 0.064 | 3.814 ± 0.085 | 6.553 ± 0.14
313.15 K, 100 kPa, Capillary tube (Ostwald / Ubbelohde) method | 0.386 ± 0.008 | 0.441 ± 0.009 | 0.526 ± 0.011 | 0.617 ± 0.013 | 0.735 ± 0.015 | 0.983 ± 0.021
313.15 K, 20000 kPa, Falling or rolling sphere viscometry | 0.476 ± 0.01 | 0.598 ± 0.013 | 0.701 ± 0.015 | 0.821 ± 0.018 | 0.979 ± 0.022 | 1.356 ± 0.03
313.15 K, 40000 kPa, Falling or rolling sphere viscometry | 0.587 ± 0.013 | 0.748 ± 0.016 | 0.894 ± 0.02 | 1.059 ± 0.023 | 1.292 ± 0.029 | 1.869 ± 0.042
313.15 K, 60000 kPa, Falling or rolling sphere viscometry | 0.712 ± 0.016 | 0.917 ± 0.02 | 1.118 ± 0.024 | 1.339 ± 0.029 | 1.668 ± 0.037 | 2.51 ± 0.056
313.15 K, 80000 kPa, Falling or rolling sphere viscometry | 0.853 ± 0.019 | 1.104 ± 0.024 | 1.376 ± 0.03 | 1.669 ± 0.037 | 2.119 ± 0.047 | 3.31 ± 0.073
313.15 K, 100000 kPa, Falling or rolling sphere viscometry | 1.014 ± 0.022 | 1.312 ± 0.029 | 1.677 ± 0.037 | 2.058 ± 0.045 | – | –
